The record followed here is ChEMBL document CHEMBL2176940, “Discovery of ligands for ADP-ribosyltransferases via docking-based virtual screening” (J Med Chem, 2012).

Each structure is given as a SMILES string.

The term ΔTm denotes the change in melting temperature against a reference sample.

In this experiment the target is T1, Protein mono-ADP-ribosyltransferase PARP15 (Homo sapiens) (UniProt Q460N3).
T1 sequence (whole entry): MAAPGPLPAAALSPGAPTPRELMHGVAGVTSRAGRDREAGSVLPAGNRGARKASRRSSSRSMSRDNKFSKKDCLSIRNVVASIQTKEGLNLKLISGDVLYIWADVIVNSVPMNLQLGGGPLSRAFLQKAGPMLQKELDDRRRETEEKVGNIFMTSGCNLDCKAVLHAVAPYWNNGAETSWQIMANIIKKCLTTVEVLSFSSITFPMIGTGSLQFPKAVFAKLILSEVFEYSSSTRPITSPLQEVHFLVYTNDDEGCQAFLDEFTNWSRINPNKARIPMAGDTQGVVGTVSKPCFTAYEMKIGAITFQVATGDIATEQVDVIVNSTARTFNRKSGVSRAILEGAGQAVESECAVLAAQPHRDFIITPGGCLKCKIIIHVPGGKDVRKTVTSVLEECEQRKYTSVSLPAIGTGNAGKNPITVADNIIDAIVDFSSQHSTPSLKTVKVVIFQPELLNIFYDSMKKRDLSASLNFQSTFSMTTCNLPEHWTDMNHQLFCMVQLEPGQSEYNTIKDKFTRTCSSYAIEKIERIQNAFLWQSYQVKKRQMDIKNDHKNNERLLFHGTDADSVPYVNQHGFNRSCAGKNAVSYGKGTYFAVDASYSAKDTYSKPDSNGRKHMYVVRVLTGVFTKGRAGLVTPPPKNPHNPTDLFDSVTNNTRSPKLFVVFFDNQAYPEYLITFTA
Description: Binding affinity at human recombinant ARTD7 expressed in Escherichia coli BL21 (DE3) R3 pRARE cells assessed as thermal stability shift by differential scanning fluorimetry

As to `NC(=O)c1cccc(NC(=O)/C=C\C(=O)O)c1`, the ΔTm amounted to 0.8 °C.
